The subject of this assay is BDF1 mice, P388 leukemia ip, median survival T/C. Description: NCI In Vivo Anticancer Drug Screen. Data for tumor model P388 Leukemia (intraperitoneal) in B6D2F1 (BDF1) mice. As to conditions: endpoint: median survival time, higher = longer survival. An outline of the steps:
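Antitumour effect was judged in vivo: survival in drug-treated mice, normalised to that of vehicle-dosed controls, gives the reported T/C.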

[1] abbreviates: dose: 12.5 mg/kg/injection, schedule: Q04DX003 (ip), vehicle: water.
The mark [2] stands for this setting: dose: 25.0 mg/kg/injection, schedule: Q04DX003 (ip), vehicle: water.
[3] abbreviates: dose: 50.0 mg/kg/injection, schedule: Q04DX003 (ip), vehicle: water.

Inconclusive results and toxic doses are left out.

Here are results for nine compounds from PubChem BioAssay AID328 (DTP/NCI, 2004).

`O=C1C(=O)c2ccccc2C(O)=C1CC=C(Cl)Cl`: the T/C reads like this: (dose: 6.2 mg/kg/injection, schedule: Q01DX005 (ip), vehicle: water) 100 % of control; (dose: 12.5 mg/kg/injection, schedule: Q01DX001 (ip), vehicle: water) 100 % of control; (dose: 12.5 mg/kg/injection, schedule: Q01DX005 (ip), vehicle: water) 100 % of control; (dose: 12.5 mg/kg/injection, schedule: Q01DX010 (ip), vehicle: saline) 100 % of control; (dose: 12.5 mg/kg/injection, schedule: Q03HX024 (ip), vehicle: water) 100 % of control; under setting [1], 100 % of control. For the same compound, the T/C is 100 % of control (dose: 12.5 mg/kg/injection, schedule: Q08DX002 (ip), vehicle: water); 108 % of control (dose: 25.0 mg/kg/injection, schedule: Q01DX001 (ip), vehicle: water); 100 % of control (dose: 25.0 mg/kg/injection, schedule: Q01DX005 (ip), vehicle: water); 100 % of control (dose: 25.0 mg/kg/injection, schedule: Q01DX009 (ip), vehicle: water); 100 % of control (dose: 25.0 mg/kg/injection, schedule: Q01DX009 (oral), vehicle: water); 87 % of control (dose: 25.0 mg/kg/injection, schedule: Q01DX010 (ip), vehicle: saline). For the same compound, the T/C is, setting by setting: (dose: 25.0 mg/kg/injection, schedule: Q03HX008 (ip), vehicle: water) 100 % of control; (dose: 25.0 mg/kg/injection, schedule: Q03HX016 (ip), vehicle: water) 109 % of control; (dose: 25.0 mg/kg/injection, schedule: Q03HX024 (ip), vehicle: water) 100 % of control; under setting [2], 100 % of control; (dose: 25.0 mg/kg/injection, schedule: Q08DX002 (ip), vehicle: water) 109 % of control; (dose: 50.0 mg/kg/injection, schedule: Q01DX001 (ip), vehicle: water) 108 % of control. The T/C is, setting by setting: (dose: 50.0 mg/kg/injection, schedule: Q01DX001 (oral), vehicle: water) 108 % of control; (dose: 50.0 mg/kg/injection, schedule: Q01DX005 (ip), vehicle: water) 100 % of control; (dose: 50.0 mg/kg/injection, schedule: Q01DX009 (oral), vehicle: water) 100 % of control; (dose: 50.0 mg/kg/injection, schedule: Q01DX010 (ip), vehicle: saline) 91 % of control; (dose: 50.0 mg/kg/injection, schedule: Q01DX010 (oral), vehicle: saline with Tween-80) 104 % of control; (dose: 50.0 mg/kg/injection, schedule: Q03HX008 (ip), vehicle: water) 100 % of control. The T/C runs as follows: (dose: 50.0 mg/kg/injection, schedule: Q03HX016 (ip), vehicle: water) 100 % of control; (dose: 50.0 mg/kg/injection, schedule: Q03HX024 (ip), vehicle: water) 86 % of control; under setting [3], 100 % of control; (dose: 50.0 mg/kg/injection, schedule: Q08DX002 (ip), vehicle: water) 109 % of control; (dose: 75.0 mg/kg/injection, schedule: Q01DX005 (ip), vehicle: water) 108 % of control; (dose: 75.0 mg/kg/injection, schedule: Q03HX024 (ip), vehicle: water) 86 % of control. Also, the T/C by setting is: (dose: 75.0 mg/kg/injection, schedule: Q04DX003 (ip), vehicle: water) 100 % of control; (dose: 100.0 mg/kg/injection, schedule: Q01DX001 (oral), vehicle: water) 108 % of control; (dose: 100.0 mg/kg/injection, schedule: Q01DX009 (oral), vehicle: water) 86 % of control; (dose: 100.0 mg/kg/injection, schedule: Q01DX010 (oral), vehicle: saline with Tween-80) 108 % of control; (dose: 100.0 mg/kg/injection, schedule: Q03HX008 (ip), vehicle: water) 100 % of control; (dose: 100.0 mg/kg/injection, schedule: Q03HX016 (ip), vehicle: water) 100 % of control. The T/C runs as follows: (dose: 100.0 mg/kg/injection, schedule: Q03HX024 (ip), vehicle: water) 100 % of control; (dose: 100.0 mg/kg/injection, schedule: Q08DX002 (ip), vehicle: water) 109 % of control; (dose: 200.0 mg/kg/injection, schedule: Q01DX001 (oral), vehicle: water) 100 % of control; (dose: 200.0 mg/kg/injection, schedule: Q03HX008 (ip), vehicle: water) 109 % of control; (dose: 200.0 mg/kg/injection, schedule: Q03HX016 (ip), vehicle: water) 100 % of control; (dose: 300.0 mg/kg/injection, schedule: Q01DX009 (oral), vehicle: water) 91 % of control.

`CC[P+]1(c2ccccc2)CCCc2ccc3ccccc3c21` (configuration not stated): the T/C reads like this: (dose: 1.56 mg/kg/injection, schedule: Q01DX009 (ip), vehicle: saline) 116 % of control; (dose: 3.12 mg/kg/injection, schedule: Q01DX009 (ip), vehicle: saline) 120 % of control; (dose: 30.0 mg/kg/injection, schedule: Q01DX009 (ip), vehicle: saline) 90 % of control.

As to `O=[As]O`, the T/C runs as follows: (dose: 2.0 mg/kg/injection, schedule: Q01DX009 (ip), vehicle: saline) 115 % of control; (dose: 4.0 mg/kg/injection, schedule: Q01DX009 (ip), vehicle: saline) 123 % of control; (dose: 8.0 mg/kg/injection, schedule: Q01DX009 (ip), vehicle: saline) 150 % of control.

For the compound `CC(C)(C)NCc1cc(C(C)(C)C)cc(-c2ccc(Cl)cc2)c1O`, the T/C by setting is: (dose: 50.0 mg/kg/injection, schedule: Q01DX009 (ip), vehicle: saline with Tween-80) 99 % of control; (dose: 100.0 mg/kg/injection, schedule: Q01DX009 (ip), vehicle: saline with Tween-80) 102 % of control.

On to `CCOC(=O)CCC(NC(=O)c1ccc2c(c1)CCCN2C=O)C(=O)OCC` (configuration not stated), for which the T/C by setting is: (dose: 25.0 mg/kg/injection, schedule: Q01DX001 (ip), vehicle: saline sonified) 100 % of control; (dose: 50.0 mg/kg/injection, schedule: Q01DX001 (ip), vehicle: saline sonified) 100 % of control; (dose: 100.0 mg/kg/injection, schedule: Q01DX001 (ip), vehicle: saline sonified) 100 % of control.

As to `CP1(=O)CC(=O)CCC(=O)C1`, the T/C is 104 % of control (dose: 50.0 mg/kg/injection, schedule: Q04DX002 (ip), vehicle: saline); 105 % of control (dose: 100.0 mg/kg/injection, schedule: Q04DX002 (ip), vehicle: saline); 106 % of control (dose: 200.0 mg/kg/injection, schedule: Q04DX002 (ip), vehicle: saline).

Consider `Cc1cc([N+](=O)[O-])cc([N+](=O)[O-])c1OC(=O)c1ccc(N=C(N)N)cc1`, for which the T/C is 110 % of control (dose: 25.0 mg/kg/injection, schedule: Q01DX009 (ip), vehicle: saline); 110 % of control (dose: 50.0 mg/kg/injection, schedule: Q01DX009 (ip), vehicle: saline); 109 % of control (dose: 50.0 mg/kg/injection, schedule: Q04DX003 (ip), vehicle: saline); 110 % of control (dose: 100.0 mg/kg/injection, schedule: Q01DX009 (ip), vehicle: saline); 100 % of control (dose: 100.0 mg/kg/injection, schedule: Q04DX003 (ip), vehicle: saline); 110 % of control (dose: 150.0 mg/kg/injection, schedule: Q01DX009 (ip), vehicle: saline). The T/C (dose: 200.0 mg/kg/injection, schedule: Q04DX003 (ip), vehicle: saline) is 90 % of control.

In the case of `C=C1C(=O)OC2C1CCC(=C)C1CC(O)C(=C)C12` (configuration not stated), the T/C reads like this: (dose: 7.4 mg/kg/injection, schedule: Q01DX009 (ip), vehicle: saline with Tween-80) 91 % of control; (dose: 11.0 mg/kg/injection, schedule: Q01DX009 (ip), vehicle: saline with Tween-80) 104 % of control; (dose: 16.0 mg/kg/injection, schedule: Q01DX009 (ip), vehicle: saline with Tween-80) 91 % of control; (dose: 25.0 mg/kg/injection, schedule: Q01DX009 (ip), vehicle: saline with Tween-80) 100 % of control.

Regarding `O=C1C2C(C(=O)N1c1ccc(OCc3ccccc3)cc1)C1c3ccccc3C2C2CCCCN21` (configuration not stated), the T/C (dose: 3.13 mg/kg/injection, schedule: Q04DX003 (ip), vehicle: water) was 93 % of control; the T/C (dose: 6.25 mg/kg/injection, schedule: Q04DX003 (ip), vehicle: water) was 101 % of control; the T/C under setting [1] is 97 % of control; the T/C under setting [2] is 101 % of control; the T/C under setting [3] is 99 % of control.
